The experiment relates to transformation of CPP1 to CPP2 in pooled human serum. In words: In vitro serum calcification propensity (T50) screening assay. The following applies: for T50: one value per experiment; for activity/unit mass: mean c350 x mw (Na salt); for concentration upon which a T50 of 350 min is reached (c350), mean: mean of n experiments; for Concentration at T50 = 350 min mean ± s.d. (n) (c350): pooled human serum, 10 mM calcium, 6 mM phosphate, 37 °C; for concentration upon which a T50 of 350 min is reached (c350), single experiment: one value per experiment (lab journal reference E05-E40); for c350: unit not printed in the sentence (equals mg/L column of rebuttal Table 1). Type of experiment: biochemical. On the set-up: key to T50: T50 in minutes (time to 50% CPP phase transition). As to the method:
The compounds were ranked for calcification inhibition activity using a nanoparticle-based test, developed for risk stratification, which measures the propensity for calcification in patient serum. […] The time, after which 50% of CPP phase transition occurred (T50), was assessed by time-resolved spectrophotometry at 550 nm (Supplementary Fig. 1a).
The screening assay was performed as described previously. In brief, pooled human serum (H4522, Sigma-Aldrich) stored at −20 °C was thawed at 37 °C, centrifuged (10,000 × g, and 4 °C, 30 min) (5427R, Eppendorf, Switzerland), and sterile filtered (0.22 μm filter, Millipore, Merck KGaA) to remove potential cryoprecipitates (cleared human serum). The calcium solution was 40 mM CaCl2 (102382, Merck KGaA) in HBS, pH 7.4 (RT) (100 mM HEPES (H3375, Sigma-Aldrich) and 140 mM NaCl (1734712, Fisher Scientific, Hampton, NH, USA)). […] All salt solutions and buffers were double sterile filtered (0.22 µm) and pre-warmed to 37 °C prior to use. […] The plate was sealed with an adhesive film and the absorption at 550 nm was measured every 3 min with 1 min in-between shaking for a total of 300 cycles at 37 °C using the infinite M200 microplate reader (Tecan, Männedorf, Switzerland). An A550 vs. time graph was generated and T50 (min) (time at half-maximum transition from CPP1 to CPP2) values were derived by sigmoidal curve fit using Prism 8 (nonlinear regression in the log(agonist) vs. response–variable slope (four parameter mode) using the robust fit fitting method, GraphPad Software, San Diego, CA, USA). Activities between compounds were compared by generating a T50 (min) vs. concentration (µM) graph, calculating nonlinear regression and deriving the concentration required to delay T50 to 350 min (c350) using a standard equation for the dose–response curve, Eq. (1), whereby x = [compound], y = time (min), bottom = baseline response, top = maximum response, T50 = [drug] that leads to half-maximum response, and the hill slope is a factor that describes the steepness of the curve.1 y= bottom+top - bottom/1+T50/x^hillslope.

Where “and” joins values, the source holds several entries; their conditions need not be identical. Equal values may be shown once.

On to `O=P1(O)OP(=O)(O)O[C@H]2[C@@H](O1)[C@@H]1OP(=O)(O)OP(=O)(O)O[C@H]1[C@@H]1OP(=O)(O)OP(=O)(O)O[C@@H]21` (racemic) [ITPP, myo-inositol trispyrophosphate], for which the activity/unit mass is 60.60 mg/L; the “concentration upon which a T50 of 350 min is reached (c350), mean” value (“concentration upon which a T50 … mean” for short) is over 100 µM; the “Concentration at T50 = 350 min mean ± s.d. (n) (c350)” value (“Concentration … (n) (c350)” for short) was >100 (4) µM and >60.6 (4) mg/L. The T50 (concentration 1 μM) is 193.4 and 250.1 and 242.3 and 298. Besides, the T50 (concentration 3 μM) is 191.467 and 273.733 and 236.7 and 299.7. Moreover, the T50 (concentration 10 μM) is 194.6 and 250.333 and 260.467 and 308.2. Moreover, the T50 (concentration 30 μM) is 200.233 and 253.8 and 260.967. Besides, the T50 (concentration 50 μM) turned out to be 203.167. Besides, the T50 (concentration 100 μM) was 274.033 and 292.433.

Consider `COCCOCCO[C@@H]1[C@@H](OP(=O)(O)O)[C@H](OP(=O)(O)O)[C@@H](OP(=O)(O)O)[C@@H](OP(=O)(O)O)[C@H]1OP(=O)(O)O` (racemic) [OEG2-IP5, (±)-6-O-(methoxy-diethyleneglycol)-myo-inositol-1,2,3,4,5-pentakis(phosphate)], for which the activity/unit mass amounted to 7.10 mg/L; the “concentration upon which a T50 … mean” value was determined as 7.9 µM; the “concentration upon which a T50 of 350 min is reached (c350), single experiment” value was 5.5 µM and 7.4 µM and 10.7 µM; the “Concentration … (n) (c350)” value was 7.9 ± 2.7 (3) µM and 7.1 ± 2.4 (3) mg/L. Also, the c350 is listed as 7.1 ± 2.4. Besides, the T50 (concentration 0.3 μM) was 233.1 and 222.8 and 210.3. Besides, the T50 (concentration 1 μM) was 261.7 and 258.567 and 225.033. Besides, the T50 (concentration 3 μM) was 295.2 and 270.867 and 244.067. Also, for the setting “concentration 10 μM”, the T50 is 440.033 and 391.7 and 340.167. The “Concentration … (n) (c350)” value (listed as (±)-4-O-(methoxy-diethyleneglycol)-myo-inositol-1,2,3,5,6-pentakis(phosphate)) was 7.9 ± 2.7 µM and 7.1 ± 2.4 mg/L.

For the compound `COCCOCCOCCOCCOCCOCCOCCO[C@@H]1[C@@H](OP(=O)(O)O)[C@H](OP(=O)(O)O)[C@@H](OP(=O)(O)O)[C@@H](OP(=O)(O)O)[C@H]1OP(=O)(O)O` (racemic) [OEG7-IP5, (±)-6-O-(methoxy-heptaethyleneglycol)-myo-inositol-1,2,3,4,5-pentakis(phosphate)], the activity/unit mass was determined as 7.56 mg/L; the “concentration upon which a T50 … mean” value was 6.7 µM; the “concentration upon which a T50 of 350 min is reached (c350), single experiment” value is 5.8 µM and 6.8 µM and 7.6 µM; the “Concentration … (n) (c350)” value was 6.7 ± 0.9 (3) µM and 7.6 ± 1.0 (3) mg/L. Further, the T50 (concentration 0.3 μM) is 220.667 and 225.7 and 210.2. The T50 (concentration 1 μM) is 229.7 and 230.533 and 222.7. Where the note is “concentration 3 μM”, the T50 was 271.4 and 260.7 and 241.467. Further, the T50 (concentration 10 μM) is 480.067 and 432.633 and 427.367.

`COCCOCCOCCOCCOCCOCCOCCOCCOCCOCCOCCO[C@@H]1[C@@H](OS(=O)(=O)O)[C@H](OP(=O)(O)O)[C@@H](OS(=O)(=O)O)[C@@H](OP(=O)(O)O)[C@H]1OS(=O)(=O)O` (racemic) [OEG11-IP2S3, (±)-4-O-(methoxy-undecaethyleneglycol)-1,3,5-O-tris(sulfato)-myo-inositol-2,6-O-bis(phosphate)]: the activity/unit mass is 22.87 mg/L; the “concentration upon which a T50 … mean” value was 18.6 µM; the “concentration upon which a T50 of 350 min is reached (c350), single experiment” value was 16.2 µM and 19.4 µM and 17.1 µM and 19.2 µM and 20.9 µM; the “Concentration … (n) (c350)” value is 18.6 ± 1.9 (5) µM and 22.9 ± 2.3 (5) mg/L. The T50 (concentration 0.3 μM) stood at 256.3. Moreover, the T50 (concentration 1 μM) is 217.567 and 236.467 and 212.467. Moreover, where the note is “concentration 3 μM”, the T50 is 261.167 and 253.1 and 226.6. The T50 (concentration 10 μM) was 303.9 and 300.967 and 303.767 and 294.6. For the same compound, the T50 (concentration 30 μM) was 430.533 and 413.2 and 437.833 and 410.233. In addition, the T50 (concentration 50 μM) was 586.8 and 587.733 and 528.367.

As to `COCCOCCOCCOCCOCCOCCOCCOCCOCCOCCOCCO[C@@H]1[C@@H](OP(=O)(O)O)[C@H](OP(=O)(O)O)[C@@H](OP(=O)(O)O)[C@@H](OP(=O)(O)O)[C@H]1OP(=O)(O)O` (racemic) [OEG11-IP5, (±)-6-O-(methoxy-undecaethyleneglycol)-myo-inositol-1,2,3,4,5-pentakis(phosphate)], the activity/unit mass stood at 6.84 mg/L; the “concentration upon which a T50 … mean” value came out at 5.3 µM; the “concentration upon which a T50 of 350 min is reached (c350), single experiment” value is 4.6 µM and 5.2 µM and 6.0 µM; the “Concentration … (n) (c350)” value was 5.3 ± 0.7 (3) µM and 6.8 ± 0.9 (3) mg/L. The T50 (concentration 0.3 μM) is 222.7 and 220.167 and 220.4. In addition, the T50 (concentration 1 μM) is 258.35 and 236.633 and 236.5. The T50 (concentration 3 μM) is 294.167 and 279.867 and 265.867. The T50 (concentration 10 μM) was 559.8 and 530.3 and 501.9.

As to `COCCOCCOCCOCCOCCOCCOCCOCCOCCOCCOCCOCCO[C@@H]1[C@@H](OP(=O)(O)O)[C@H](OP(=O)(O)O)[C@@H](OP(=O)(O)O)[C@@H](OP(=O)(O)O)[C@H]1OP(=O)(O)O` (racemic) [OEG12-IP5, (±)-6-O-(methoxy-dodecaethyleneglycol)-myo-inositol-1,2,3,4,5-pentakis(phosphate)], the activity/unit mass stood at 6.58 mg/L; the “concentration upon which a T50 … mean” value came out at 4.9 µM; the “concentration upon which a T50 of 350 min is reached (c350), single experiment” value is 6.0 µM and 4.6 µM and 4.9 µM and 4.4 µM; the “Concentration … (n) (c350)” value was 4.9 ± 0.6 (5) µM and 6.6 ± 0.9 (5) mg/L. The T50 (concentration 0.246 μM) was 217.233 and 225.267. Also, the T50 (concentration 0.82 μM) is 258.4 and 206.7 and 222.1 and 217.5 and 256.667. In addition, the T50 (concentration 1.6 μM) was 275.15 and 220.7. Also, the T50 (concentration 2.46 μM) is 260.5 and 282.167. Besides, the T50 (concentration 4.1 μM) was 332.45 and 282.35 and 325.75 and 315.4 and 340. The T50 (concentration 8.2 μM) is 493.7 and 442.3 and 481.45 and 498.1 and 499.967.

`COCCOCCO[C@H]1[C@@H](OP(=O)(O)O)[C@H](OP(=O)(O)O)[C@@H](OP(=O)(O)O)[C@H](OP(=O)(O)O)[C@H]1OP(=O)(O)O` [2-mono-OEG2-IP5, (±)-2-O-(methoxy-diethyleneglycol)-myo-inositol-1,2,3,5,6-pentakis(phosphate)]: the “Concentration … (n) (c350)” value is 8.8 ± 0.1 µM and the c350 amounted to 7.9 ± 0.1. Further, under “listed as (±)-2-O-(methoxy-diethyleneglycol)-myo-inositol-1,2,3,5,6-pentakis(phosphate)”, the “Concentration … (n) (c350)” value worked out at 7.9 ± 0.1 mg/L.

On to `COCCOCCO[C@H]1[C@H](OP(=O)(O)O)[C@H](OCCOCCOC)[C@H](OP(=O)(O)O)[C@@H](OCCOCCOC)[C@@H]1OP(=O)(O)O` [(OEG2)3-IP3, 2,4,6-Tri-O-(methoxy-diethyleneglycol)-myo-inositol-1,3,5-tris(phosphate)], for which the activity/unit mass turned out to be 5.43 mg/L; the “concentration upon which a T50 … mean” value was 7.1 µM; the “concentration upon which a T50 of 350 min is reached (c350), single experiment” value is 6.1 µM and 7.7 µM and 7.4 µM; the “Concentration … (n) (c350)” value is 7.1 ± 0.9 (3) µM and 5.4 ± 0.7 (3) mg/L. In addition, the T50 (concentration 1 μM) was 250.8 and 223.6 and 227.933. Moreover, the T50 (concentration 3 μM) was 288.867 and 266.233 and 265.7. In addition, the T50 (concentration 5 μM) is 325.1 and 295.733 and 294.5. Besides, for the setting “concentration 10 μM”, the T50 was 440.6 and 395.433 and 411.533.

Take `COCCOCCOCCOCCOCCOCCOCCO[C@@H]1[C@@H](OP(=O)(O)O)[C@H](OCCOCCOCCOCCOCCOCCOCCOC)[C@@H](OP(=O)(O)O)[C@@H](OP(=O)(O)O)[C@H]1OP(=O)(O)O` [(OEG7)2-IP4, 4,6-Di-O-(methoxy-heptaethyleneglycol)-myo-inositol-1,2,3,5-tetrakis(phosphate)]: the activity/unit mass amounted to 5.96 mg/L; the “concentration upon which a T50 … mean” value came to 4.5 µM; the “concentration upon which a T50 of 350 min is reached (c350), single experiment” value is 4.1 µM and 4.9 µM and 4.5 µM; the “Concentration … (n) (c350)” value was 4.5 ± 0.4 (3) µM and 6.0 ± 0.6 (3) mg/L. Also, the T50 (concentration 0.3 μM) is 217.433 and 203.2 and 207.5. For the setting “concentration 1 μM”, the T50 is 243.55 and 226.667 and 233.367. Under “concentration 3 μM”, the T50 was 297.4 and 271.533 and 282.8. Besides, the T50 (concentration 10 μM) is 754.35 and 624.433 and 692.333.

The values above are taken from article PMC7002685, “Inhibition of vascular calcification by inositol phosphates derivatized with ethylene glycol oligomers” (Nature Communications, 2020).
